Literature values in patent US20040248861A1, “Modified delta5-androstenes having improved bioavailability” (priority 2003, published 2004).

Key:
[1] = single transdermal dose of 25 mg
[2] = monkeys, very high doses (equivalent to about 70 grams/day for a human)
virus similar to HIV = details: doses as low as 8 mg/kg/day
flu viruses = details: mice infected with flu viruses; to some of the viruses
[3] = supplement to diet
[4] = 200 mg/day for 28 days
[5] = not given; remark: listed apart in the source
[6] = patients with normal adrenal function taking supplemental DHEA

## CCCCCCCCCCC(=O)O[C@H]1CC[C@H]2[C@@H]3CCC4=CC(=O)CC[C@]4(C)[C@H]3CC[C@]12C [testosterone undecanoate]
Single oral dose of 100 mg, dissolved in oil
  increase in serum levels of testosterone: 2.3 fold

## C[C@]12CC[C@H](O)CC1=CC(=O)[C@@H]1[C@@H]2CC[C@]2(C)C(=O)CC[C@@H]12 [7-keto-DHEA, 7-keto-dehydroepiandrosterone]
[1]
  blood levels of HDL-cholesterol: improved
[2]
  salivation: caused excess salivation
Virus similar to HIV
  bodyweight: regained bodyweight
Flu viruses
  anti-viral antibodies: increase
[3]
  T3 thyroid stimulating hormone: increased
  body fat: statistically significant decreased
  bodyweight: statistically significant decreased
[4]
  safety problems in clinical trials: no safety problems
[5]; in vivo
  metabolism to estrogens or testosterone: does not metabolize
[5]; supplementary 7-keto-DHEA
  estradiol levels in the blood: decrease
  testosterone levels in the blood: decrease

## C[C@]12CC[C@H](O)CC1=CC[C@@H]1[C@@H]2CC[C@]2(C)C(=O)CC[C@@H]12 [DHEA, dehydroepiandrosterone]
[6]
  acne (share of patients): over 50%

## C[C@]12CC[C@H]3[C@@H](CCC4=CC(=O)CC[C@@]43C)[C@@H]1CC[C@@H]2O [free testosterone, testosterone]
oral, equivalent dose (63 mg)
  effect on serum levels of testosterone: no noticeable effect
